Assay results reported in patent US12516046B2, “2-oxo-oxazolidine-5-carboxamides as NAV1.8 inhibitors” (Merck Sharp & Dohme LLC, priority 2020, dated 2026).

These compounds were tested against human Nav1.8 (Homo sapiens (Human), UniProt Q9Y5Y9) (assay: Nav1.8 Qube® Assay (automated 384-well patch-clamp)). Details: human Nav1.8 channels stably expressed in HEK 293 cells.
Format: cell-based
Excerpt: Qube® Assay Experimental Procedure

Chain of human Nav1.8 (Q9Y5Y9 whole entry): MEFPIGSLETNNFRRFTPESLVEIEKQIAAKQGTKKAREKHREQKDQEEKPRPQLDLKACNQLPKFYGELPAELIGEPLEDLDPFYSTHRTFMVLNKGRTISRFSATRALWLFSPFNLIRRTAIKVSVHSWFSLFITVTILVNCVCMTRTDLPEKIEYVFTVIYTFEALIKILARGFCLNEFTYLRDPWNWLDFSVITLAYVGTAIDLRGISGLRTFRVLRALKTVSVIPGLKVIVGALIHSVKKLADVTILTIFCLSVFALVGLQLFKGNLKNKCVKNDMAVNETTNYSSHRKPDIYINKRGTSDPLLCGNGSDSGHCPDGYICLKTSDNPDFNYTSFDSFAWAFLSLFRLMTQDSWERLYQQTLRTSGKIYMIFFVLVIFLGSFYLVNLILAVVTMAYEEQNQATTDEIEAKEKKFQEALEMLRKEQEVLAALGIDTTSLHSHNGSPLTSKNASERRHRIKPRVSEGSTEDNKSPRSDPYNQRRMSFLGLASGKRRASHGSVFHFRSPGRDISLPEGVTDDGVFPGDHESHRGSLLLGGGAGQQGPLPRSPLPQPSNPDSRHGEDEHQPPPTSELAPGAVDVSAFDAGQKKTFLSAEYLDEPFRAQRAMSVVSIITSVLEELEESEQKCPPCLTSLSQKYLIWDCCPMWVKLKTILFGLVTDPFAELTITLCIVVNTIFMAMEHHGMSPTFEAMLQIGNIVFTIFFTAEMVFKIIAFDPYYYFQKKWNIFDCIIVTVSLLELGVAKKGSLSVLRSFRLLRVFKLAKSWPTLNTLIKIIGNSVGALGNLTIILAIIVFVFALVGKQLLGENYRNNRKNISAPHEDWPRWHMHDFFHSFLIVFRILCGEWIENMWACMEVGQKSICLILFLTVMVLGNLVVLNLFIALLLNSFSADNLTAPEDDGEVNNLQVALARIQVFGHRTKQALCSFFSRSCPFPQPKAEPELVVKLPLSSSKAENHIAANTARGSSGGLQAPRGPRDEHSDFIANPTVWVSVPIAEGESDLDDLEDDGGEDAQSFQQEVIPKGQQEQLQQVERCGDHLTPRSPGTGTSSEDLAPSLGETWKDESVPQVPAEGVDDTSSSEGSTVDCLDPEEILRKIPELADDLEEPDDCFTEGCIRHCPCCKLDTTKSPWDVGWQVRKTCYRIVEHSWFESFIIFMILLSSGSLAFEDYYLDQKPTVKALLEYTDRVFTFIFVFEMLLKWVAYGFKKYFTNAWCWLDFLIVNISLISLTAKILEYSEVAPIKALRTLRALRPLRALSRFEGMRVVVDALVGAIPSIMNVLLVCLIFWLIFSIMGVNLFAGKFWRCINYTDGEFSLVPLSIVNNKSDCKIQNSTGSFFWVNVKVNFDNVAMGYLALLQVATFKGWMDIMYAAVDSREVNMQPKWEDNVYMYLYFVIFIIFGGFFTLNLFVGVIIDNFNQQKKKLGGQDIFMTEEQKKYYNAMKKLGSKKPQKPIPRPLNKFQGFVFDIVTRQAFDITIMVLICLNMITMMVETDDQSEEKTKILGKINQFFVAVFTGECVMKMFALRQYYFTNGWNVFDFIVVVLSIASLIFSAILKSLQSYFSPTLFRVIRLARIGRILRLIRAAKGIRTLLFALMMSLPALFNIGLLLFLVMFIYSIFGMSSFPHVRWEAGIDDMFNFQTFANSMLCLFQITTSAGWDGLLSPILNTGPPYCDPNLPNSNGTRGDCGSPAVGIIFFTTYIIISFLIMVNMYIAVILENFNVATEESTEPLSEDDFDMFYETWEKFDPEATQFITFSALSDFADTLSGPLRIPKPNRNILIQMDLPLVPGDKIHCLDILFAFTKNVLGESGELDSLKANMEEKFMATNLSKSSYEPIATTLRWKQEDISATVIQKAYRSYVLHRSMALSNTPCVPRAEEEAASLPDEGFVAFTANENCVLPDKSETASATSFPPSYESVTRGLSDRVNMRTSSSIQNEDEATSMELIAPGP

Compound | IC50
O=C1NC[C@@H](C(=O)NC(c2ccccc2)c2ccc(Cl)c(Cl)c2)O1 (single isomer, unassigned) [Example 25B, (S)-N-((R or S)-(3,4-dichlorophenyl) (phenyl)methyl)-2-oxooxazolidine-5-carboxamide] | 14 nM
O=C1NC[C@@H](C(=O)NC(c2ccc(F)c(Cl)c2)c2ccn(C(F)F)n2)O1 (single isomer, unassigned) [Example 60A, (S)-N-((R or S)-(3-chloro-4-fluorophenyl)(1-(difluoromethyl)-1H-pyrazol-3-yl)methyl)-2-oxooxazolidine-5-carboxamide] | 231 nM
O=C1NC[C@@H](C(=O)NC(c2ccc(Cl)cc2)C2CCC(F)(F)C2)O1 (single isomer, unassigned) [Example 57C, (S)-N-((R or S)-(4-chlorophenyl)((R or S)-3,3-difluorocyclopentyl)methyl)-2-oxooxazolidine-5-carboxamide] | 903 nM
O=C1NC[C@@H](C(=O)NC(c2ccc(Cl)cc2)c2ccc(Cl)c(C(F)(F)F)n2)O1 (single isomer, unassigned) [Example 2B, (S)—N—((R or S)-(5-chloro-6-(trifluoromethyl)pyridin-2-yl)(4-chlorophenyl)methyl)-2-oxooxazolidine-5-carboxamide] | 30 nM
O=C1NC[C@@H](C(=O)NC(COc2ccc(F)c(Cl)c2)c2ccc(F)c(Cl)c2)O1 (single isomer, unassigned) [Example 8A, (S)—N—((R or S)-2-(3-chloro-4-fluorophenoxy)-1-(3-chloro-4-fluorophenyl)ethyl)-2-oxooxazolidine-5-carboxamide] | 40 nM
CS(=O)(=O)c1cccc(C(NC(=O)[C@@H]2CNC(=O)O2)c2ccc(Cl)cc2)c1 (stereo partly drawn) [Example 27, (5S)-N-((4-chlorophenyl)(3-(methylsulfonyl)phenyl)methyl)-2-oxooxazolidine-5-carboxamide] | 705 nM
O=C1NC[C@@H](C(=O)NC(c2ccc(F)c(Cl)c2F)[C@@H]2CC[C@@H](C(F)(F)F)CO2)O1 (single isomer, unassigned) [Example 9B] | 9.5 nM
O=C1NC[C@@H](C(=O)NC(c2ccccc2)c2ccc(Cl)c(Cl)c2)O1 (single isomer, unassigned) [Example 25A, (S)-N-((R or S)-(3,4-dichlorophenyl) (phenyl)methyl)-2-oxooxazolidine-5-carboxamide] | 2.7 nM
O=C1NC[C@@H](C(=O)NC(c2ccc(F)c(Cl)c2)c2cnn(CC(F)(F)F)c2)O1 (single isomer, unassigned) [Example 59A, (S)-N-((R or S)-(3-chloro-4-fluorophenyl)(1-(2,2,2-trifluoroethyl)-1H-pyrazol-4-yl)methyl)-2-oxooxazolidine-5-carboxamide] | 171 nM
O=C1NC[C@@H](C(=O)NC(c2ccc(Cl)cc2)c2cccc(F)c2F)O1 (single isomer, unassigned) [Example 29B, (S)-N-((R or S)-(4-chlorophenyl)(2,3-difluorophenyl)methyl)-2-oxooxazolidine-5-carboxamide] | 74 nM
N#Cc1cc(C(NC(=O)[C@@H]2CNC(=O)O2)c2ccc(F)c(Cl)c2)ccc1F (single isomer, unassigned) [Example 69, (S)-N-((R or S)-(3-chloro-4-fluorophenyl)(3-cyano-4-fluorophenyl)methyl)-2-oxooxazolidine-5-carboxamide] | 16 nM
O=C1NC[C@@H](C(=O)NC(c2ccc(F)c(Cl)c2F)[C@@H]2CC[C@@H](C(F)(F)F)CO2)O1 (single isomer, unassigned) [Example 9C] | 356 nM
O=C1NC[C@@H](C(=O)NC(c2ccc(Cl)cc2)c2c[nH]c(C(F)(F)F)n2)O1 (single isomer, unassigned) [Example 17B, (S)-N-((R or S)-(4-chlorophenyl)(2-(trifluoromethyl)-1H-imidazol-4-yl)methyl)-2-oxooxazolidine-5-carboxamide] | 10600 nM

Continued by falling IC50, values first:

IC50 | Compound
14900 nM | CC1(C(=O)NC(c2ccc(Cl)cc2)c2ccc(Cl)cc2)CNC(=O)O1 (single isomer, unassigned) [Example 7A, (R or S)—N-(bis(4-chlorophenyl)methyl)-5-methyl-2-oxooxazolidine-5-carboxamide]
573 nM | O=C1NC[C@@H](C(=O)NC(c2cncc(Cl)c2)c2ccc(F)c(Cl)c2)O1 (single isomer, unassigned) [Example 13A, (S)-N-((R or S)-(3-chloro-4-fluorophenyl)(5-chloropyridin-3-yl)methyl)-2-oxooxazolidine-5-carboxamide]
231 nM | Cn1nc(C(F)(F)F)cc1C(NC(=O)[C@@H]1CNC(=O)O1)c1ccc(F)c(Cl)c1 (single isomer, unassigned) [Example 61B, (S)-N-((R or S)-(3-chloro-4-fluorophenyl)(1-methyl-3-(trifluoromethyl)-1H-pyrazol-5-yl)methyl)-2-oxooxazolidine-5-carboxamide]
124 nM | O=C1NC[C@@H](C(=O)NC(c2ccc(F)c(Cl)c2)c2ccn(C(F)F)n2)O1 (single isomer, unassigned) [Example 60B, (S)-N-((R or S)-(3-chloro-4-fluorophenyl)(1-(difluoromethyl)-1H-pyrazol-3-yl)methyl)-2-oxooxazolidine-5-carboxamide]
94 nM | O=C1NC[C@@H](C(=O)NC(CCc2ccc(Cl)cc2)c2ccc(F)c(Cl)c2F)O1 (single isomer, unassigned) [Example 65A, (S)—N—((R or S)-1-(3-chloro-2,4-difluorophenyl)-3-(4-chlorophenyl)propyl)-2-oxooxazolidine-5-carboxamide]
64 nM | CC(C)(C)c1csc(C(NC(=O)[C@@H]2CNC(=O)O2)c2ccc(Cl)cc2)n1 (single isomer, unassigned) [Example 39B, (S)-N-((R or S)-(4-(tert-butyl)thiazol-2-yl)(4-chlorophenyl)methyl)-2-oxooxazolidine-5-carboxamide]
57 nM | O=C1NC[C@@H](C(=O)NC(c2ccc(Cl)cc2)c2n[nH]c3ccccc23)O1 (single isomer, unassigned) [Example 15A, (S)-N-((R or S)-(4-chlorophenyl)(1H-indazol-3-yl)methyl)-2-oxooxazolidine-5-carboxamide]
48 nM | O=C1NC[C@@H](C(=O)NC(c2ccc(OCC(F)(F)F)nc2)c2ccc(F)c(Cl)c2F)O1 (single isomer, unassigned) [Example 50B, (S)—N—((R or S)-(3-chloro-2,4-difluorophenyl)(6-(2,2,2-trifluoroethoxy)pyridin-3-yl)methyl)-2-oxooxazolidine-5-carboxamide]
34 nM | O=C1NC[C@@H](C(=O)NC(c2ccc(F)c(Cl)c2)c2ccc(Cl)cn2)O1 (single isomer, unassigned) [Example 14B, (S)-N-((R or S)-(3-chloro-4-fluorophenyl)(5-chloropyridin-2-yl)methyl)-2-oxooxazolidine-5-carboxamide]
28 nM | O=C1NC[C@@H](C(=O)NC(c2ccc(Cl)cc2)C23CC(C(F)(F)F)(C2)C3)O1 (single isomer, unassigned) [Example 4A, (S)-N-((R or S)-(4-chlorophenyl)(3-(trifluoromethyl)bicyclo[1.1.1]pentan-1-yl)methyl)-2-oxooxazolidine-5-carboxamide]
24 nM | COc1ncccc1C(NC(=O)[C@@H]1CNC(=O)O1)c1ccc(F)c(Cl)c1 (single isomer, unassigned) [Example 58B, (S)-N-((R or S)-(3-chloro-4-fluorophenyl)(2-methoxypyridin-3-yl)methyl)-2-oxooxazolidine-5-carboxamide]
21 nM | O=C1NC[C@@H](C(=O)NC(c2ccc(F)c(Cl)c2)c2ccc(Cl)cn2)O1 (single isomer, unassigned) [Example 14A, (S)-N-((R or S)-(3-chloro-4-fluorophenyl)(5-chloropyridin-2-yl)methyl)-2-oxooxazolidine-5-carboxamide]
11 nM | O=C1NC[C@@H](C(=O)NC(CCc2ccc(Cl)cc2)c2ccc(F)c(Cl)c2F)O1 (single isomer, unassigned) [Example 65B, (S)—N—((R or S)-1-(3-chloro-2,4-difluorophenyl)-3-(4-chlorophenyl)propyl)-2-oxooxazolidine-5-carboxamide]
9.4 nM | O=C1NC[C@@H](C(=O)NC(c2ccc(Cl)cc2)c2cccc(C3CC3)c2)O1 (single isomer, unassigned) [Example 33B, (S)-N-((R or S)-(4-chlorophenyl)(3-cyclopropylphenyl)methyl)-2-oxooxazolidine-5-carboxamide]
6.8 nM | O=C1NC[C@@H](C(=O)NC(c2ccc(OC(F)F)cc2)c2ccc(F)c(Cl)c2)O1 (single isomer, unassigned) [Example 48B, (S)-N-((R or S)-(3-chloro-4-fluorophenyl)(4-(difluoromethoxy)phenyl)methyl)-2-oxooxazolidine-5-carboxamide]
3.3 nM | O=C1NC[C@@H](C(=O)NC(c2ccc(Cl)cc2)c2ccc(F)c(C(F)F)n2)O1 (single isomer, unassigned) [Example 16B]
1.7 nM | N#Cc1ccc(C(NC(=O)[C@@H]2CNC(=O)O2)c2cnc(C(F)(F)F)c(Cl)c2)cc1Cl (single isomer, unassigned) [Example 54A, (S)-N-((R or S)-(3-chloro-4-cyano-phenyl)(5-chloro-6-(trifluoromethyl)pyridin-3-yl)methyl)-2-oxooxazolidine-5-carboxamide]
1.6 nM | O=C1NC[C@@H](C(=O)NC(c2ccc(Cl)cc2)c2ccc(Cl)cc2OC(F)(F)F)O1 (single isomer, unassigned) [Example 47A, (S)-N-((R or S)-(4-chloro-2-(trifluoromethoxy)phenyl)(4-chlorophenyl)methyl)-2-oxooxazolidine-5-carboxamide]
0.4 nM | O=C1NC[C@@H](C(=O)NC(c2ccc(Cl)cc2)c2ccc(Cl)c(C(F)(F)F)c2)O1 (single isomer, unassigned) [Example 35A, (S)-N-((R or S)-(4-chloro-3-(trifluoromethyl)phenyl)(4-chlorophenyl)methyl)-2-oxooxazolidine-5-carboxamide]
